Source: US20180000085A1, “USE OF PICOLINAMIDE COMPOUNDS WITH FUNGICIDAL ACTIVITY” (DOW AGROSCIENCES LLC, priority 2014, published 2018)

Legend:
Zymoseptoria tritici = assay: Leaf blotch of wheat (SEPTTR) disease control on wheat seedlings; assay type: in vivo; set-up: key to SEPTTR 1DP, HV activity at 100 ppm (% control rating) / SEPTTR 3DC, HV activity at 100 ppm (% control rating) / SEPTTR disease control, 1DP / SEPTTR disease control, 3DC / SEPTTR 1DP disease control rating, HV activity / SEPTTR 3DC disease control rating, HV activity / SEPTTR 3DC, LV activity at 125.1 g/H (% Control rating) / SEPTTR 1DP, LV activity at 125.1 g/H (% Control rating) / SEPTTR 1DP disease control rating, LV activity at 125.1 g/H / SEPTTR 3DC disease control rating, LV activity at 125.1 g/H / SEPTTR 3DC disease control rating, HV activity at 100 ppm / SEPTTR 1DP disease control rating, HV activity at 100 ppm / HV activity at 100 ppm SEPTTR 3DC (disease control rating) / HV activity at 100 ppm SEPTTR 1DP (disease control rating) / LV activity at 125.1 g/H SEPTTR 1DP (disease control rating) / LV activity at 125.1 g/H SEPTTR 3DC (disease control rating): A: > 80; B: ≤ 80; C: Not Tested; D: No Activity Observed in the Reported Assay; conditions: for SEPTTR 1DP, LV activity at 125.1 g/H (% Control rating) / SEPTTR 3DC, LV activity at 125.1 g/H (% Control rating) / LV activity at 125.1 g/H SEPTTR 1DP (disease control rating) / LV activity at 125.1 g/H SEPTTR 3DC (disease control rating): low volume application; for SEPTTR 1DP disease control rating, HV activity / SEPTTR 3DC disease control rating, HV activity: HV application at 100 ppm; for SEPTTR 1DP disease control rating, HV activity / SEPTTR 3DC disease control rating, HV activity / LV activity at 125.1 g/H SEPTTR 1DP (disease control rating) / LV activity at 125.1 g/H SEPTTR 3DC (disease control rating): wheat leaf blotch
Description: (§1) All fungicides were evaluated using the aforementioned method for their activity vs. all target diseases, unless stated otherwise. Wheat leaf blotch and brown rust activity were also evaluated using track spray applications, in which case the fungicides were formulated as EC formulations, containing 0.1% Trycol 5941 in the spray solutions. Wheat plants (variety Yuma) were grown from seed in a greenhouse in 50% mineral soil/50% soil-less Metro mix until the first leaf was fully emerged, with 7-10 seedlings per pot. These plants were inoculated with an aqueous spore suspension of Zymoseptoria tritici either prior to or after fungicide treatments. After inoculation the plants were kept in 100% relative humidity (one day in a dark dew chamber followed by two to three days in a lighted dew chamber at 20° C.) to permit spores to germinate and infect the leaf. The plants were then transferred to a greenhouse set at 20° C. for disease to develop. When disease symptoms were fully expressed on the 1st leaves of untreated plants, infection levels were assessed on a scale of 0 to 100 percent disease severity. Percent disease control was calculated using the ratio of disease severity on treated plants relative to untreated plants.

Puccinia triticina = assay: Wheat brown rust (PUCCRT) disease control on wheat seedlings; assay type: in vivo; set-up: key to PUCCRT 3DC, HV activity at 100 ppm (% control rating) / PUCCRT disease control, 3DC / PUCCRT 1DP disease control rating, HV activity / PUCCRT 3DC disease control rating, HV activity / PUCCRT 3DC, LV activity at 125.1 g/H (% Control rating) / PUCCRT 1DP, LV activity at 125.1 g/H (% Control rating) / PUCCRT 3DC disease control rating, LV activity at 125.1 g/H / PUCCRT 1DP disease control rating, LV activity at 125.1 g/H / PUCCRT 3DC disease control rating, HV activity at 100 ppm / PUCCRT 1DP disease control rating, HV activity at 100 ppm / HV activity at 100 ppm PUCCRT 3DC (disease control rating) / LV activity at 125.1 g/H PUCCRT 1DP (disease control rating) / LV activity at 125.1 g/H PUCCRT 3DC (disease control rating): A: > 80; B: ≤ 80; C: Not Tested; D: No Activity Observed in the Reported Assay; conditions: for PUCCRT 1DP, LV activity at 125.1 g/H (% Control rating) / PUCCRT 3DC, LV activity at 125.1 g/H (% Control rating) / LV activity at 125.1 g/H PUCCRT 1DP (disease control rating) / LV activity at 125.1 g/H PUCCRT 3DC (disease control rating): low volume application; for PUCCRT 1DP disease control rating, HV activity / PUCCRT 3DC disease control rating, HV activity: HV application at 100 ppm; for PUCCRT 1DP disease control rating, HV activity / PUCCRT 3DC disease control rating, HV activity / LV activity at 125.1 g/H PUCCRT 1DP (disease control rating) / LV activity at 125.1 g/H PUCCRT 3DC (disease control rating): wheat brown rust
Description: as §1, with “plants. Example B: Evaluation of Fungicidal Activity: Wheat Brown Rust (Puccinia triticina; Synonym: Puccinia recondita f. sp. Tritici; Bayer Code PUCCRT) Wheat plants (variety Yuma) were grown from seed in a greenhouse in 50% mineral soil/50% soil-less Metro mix until the first leaf was fully emerged, with 7-10 seedlings per pot. These plants were inoculated with an aqueous spore suspension of Puccinia triticina either prior to or after fungicide treatments. […] The plants were then transferred to a greenhouse set at 24° C. for disease to develop. Fungicide formulation, application and disease assessment followed the procedures as described in the Example A.” for “plants.”

[1] = high volume application, 100 ppm, 1 day protectant
[2] = high volume application, 100 ppm, 3 day curative
[3] = HV application, 100 ppm, 1 Day Protectant
[4] = HV application, 100 ppm, 3 Day Curative

COc1ccnc(C(=O)N[C@@H](Cc2ccccc2)C(=O)O[C@@H](C)[C@H](Oc2cccc(F)c2)c2ccccc2)c1OCOC(C)=O [Cmpd 576]
SEPTTR 1DP, LV activity at 125.1 g/H (% Control rating) (Zymoseptoria tritici; 1 Day Protectant): B (≤ 80) | SEPTTR 3DC, LV activity at 125.1 g/H (% Control rating) (Zymoseptoria tritici; 3 Day Curative): D | PUCCRT 1DP, LV activity at 125.1 g/H (% Control rating) (Puccinia triticina; 1 Day Protectant): A (> 80) | PUCCRT 3DC, LV activity at 125.1 g/H (% Control rating) (Puccinia triticina; 3 Day Curative): B (≤ 80)

COc1ccnc(C(=O)N[C@@H](CC(C)C)C(=O)O[C@@H](C)[C@H](Oc2ccc(Cl)cc2Cl)C(C)C)c1OCOC(C)=O [Cmpd 565]
SEPTTR 1DP, LV activity at 125.1 g/H (% Control rating) (Zymoseptoria tritici; 1 Day Protectant): D | SEPTTR 3DC, LV activity at 125.1 g/H (% Control rating) (Zymoseptoria tritici; 3 Day Curative): B (≤ 80) | PUCCRT 1DP, LV activity at 125.1 g/H (% Control rating) (Puccinia triticina; 1 Day Protectant): B (≤ 80) | PUCCRT 3DC, LV activity at 125.1 g/H (% Control rating) (Puccinia triticina; 3 Day Curative): B (≤ 80)

COc1ccnc(C(=O)N[C@@H](C)C(=O)O[C@@H](C)[C@@H](CC(C)C)Oc2ccccc2)c1O [Cmpd 355]
SEPTTR 1DP disease control rating, HV activity (Zymoseptoria tritici; 1 Day Protectant): A (> 80) | SEPTTR 3DC disease control rating, HV activity (Zymoseptoria tritici; 3 Day Curative): A (> 80) | PUCCRT 1DP disease control rating, HV activity (Puccinia triticina; 1 Day Protectant): A (> 80) | PUCCRT 3DC disease control rating, HV activity (Puccinia triticina; 3 Day Curative): A (> 80)

CCC(CC)[C@@H](Oc1ccc(-c2ccccc2)cc1)[C@H](C)OC(=O)[C@@H](NC(=O)c1nccc(OC)c1OCOC(C)=O)C(C)C [Cmpd 655]
SEPTTR 1DP, LV activity at 125.1 g/H (% Control rating) (Zymoseptoria tritici; 1 Day Protectant): A (> 80) | SEPTTR 3DC, LV activity at 125.1 g/H (% Control rating) (Zymoseptoria tritici; 3 Day Curative): B (≤ 80) | PUCCRT 1DP, LV activity at 125.1 g/H (% Control rating) (Puccinia triticina; 1 Day Protectant): A (> 80) | PUCCRT 3DC, LV activity at 125.1 g/H (% Control rating) (Puccinia triticina; 3 Day Curative): B (≤ 80)

COc1ccnc(C(=O)N[C@@H](C)C(=O)O[C@@H](C)[C@H](Oc2cccc(F)c2)c2cccc(-c3ccccc3)c2)c1O [Cmpd 814]
SEPTTR 1DP disease control rating, HV activity at 100 ppm (Zymoseptoria tritici; [1]): D | SEPTTR 3DC disease control rating, HV activity at 100 ppm (Zymoseptoria tritici; [2]): D | PUCCRT 1DP disease control rating, HV activity at 100 ppm (Puccinia triticina; [1]): B (≤ 80) | PUCCRT 3DC disease control rating, HV activity at 100 ppm (Puccinia triticina; [2]): D

CCC(CC)[C@@H](Oc1ccc(F)cc1)[C@H](C)OC(=O)[C@@H](NC(=O)c1nccc(OC)c1OCOC(C)=O)C(C)C [Cmpd 646]
SEPTTR 1DP, HV activity at 100 ppm (% control rating) (Zymoseptoria tritici; [3]): A (> 80) | SEPTTR 3DC, HV activity at 100 ppm (% control rating) (Zymoseptoria tritici; [4]): A (> 80) | SEPTTR 1DP, LV activity at 125.1 g/H (% Control rating) (Zymoseptoria tritici; 1 Day Protectant): B (≤ 80) | SEPTTR 3DC, LV activity at 125.1 g/H (% Control rating) (Zymoseptoria tritici; 3 Day Curative): B (≤ 80) | PUCCRT 1DP, HV activity at 100 ppm (% control rating) (Puccinia triticina; [3]): A (> 80) | PUCCRT 3DC, HV activity at 100 ppm (% control rating) (Puccinia triticina; [4]): A (> 80) | PUCCRT 1DP, LV activity at 125.1 g/H (% Control rating) (Puccinia triticina; 1 Day Protectant): A (> 80) | PUCCRT 3DC, LV activity at 125.1 g/H (% Control rating) (Puccinia triticina; 3 Day Curative): A (> 80)

CCC[C@@H](Oc1ccc(C)cc1)[C@H](C)OC(=O)[C@H](C)NC(=O)c1nccc(OC)c1OC(C)=O [Cmpd 1060]
LV activity at 125.1 g/H SEPTTR 1DP (disease control rating) (Zymoseptoria tritici; 1 Day Protectant): B (≤ 80) | LV activity at 125.1 g/H SEPTTR 3DC (disease control rating) (Zymoseptoria tritici; 3 Day Curative): B (≤ 80) | LV activity at 125.1 g/H PUCCRT 1DP (disease control rating) (Puccinia triticina; 1 Day Protectant): A (> 80) | LV activity at 125.1 g/H PUCCRT 3DC (disease control rating) (Puccinia triticina; 3 Day Curative): A (> 80)

CCC(CC)[C@@H](Oc1cc(F)ccc1F)[C@H](C)OC(=O)[C@@H](NC(=O)c1nccc(OC)c1O)C(C)C [Cmpd 409]
SEPTTR 1DP disease control rating, HV activity (Zymoseptoria tritici; 1 Day Protectant): D | SEPTTR 3DC disease control rating, HV activity (Zymoseptoria tritici; 3 Day Curative): D | PUCCRT 1DP disease control rating, HV activity (Puccinia triticina; 1 Day Protectant): B (≤ 80) | PUCCRT 3DC disease control rating, HV activity (Puccinia triticina; 3 Day Curative): B (≤ 80)

COc1cccc(O[C@H](C2CC2)[C@H](C)OC(=O)[C@H](C)NC(=O)c2nccc(OC)c2OC(C)=O)c1 [Cmpd 1061]
LV activity at 125.1 g/H SEPTTR 1DP (disease control rating) (Zymoseptoria tritici; 1 Day Protectant): D | LV activity at 125.1 g/H SEPTTR 3DC (disease control rating) (Zymoseptoria tritici; 3 Day Curative): B (≤ 80) | LV activity at 125.1 g/H PUCCRT 1DP (disease control rating) (Puccinia triticina; 1 Day Protectant): B (≤ 80) | LV activity at 125.1 g/H PUCCRT 3DC (disease control rating) (Puccinia triticina; 3 Day Curative): A (> 80)
